Experimental findings from US9611267B2, “Substituted tricyclic compounds as FGFR inhibitors” (Incyte Corporation, priority 2012, dated 2017) are described below.

What all share (assay type): biochemical
The target of one assay is FGFR1 (Homo sapiens (Human), UniProt P11362). The assay is described as follows: FGFR enzymatic assay (FRET peptide phosphorylation), FGFR1. Particulars: FGFR1 enzyme 0.02 nM, ATP 210 μM. In a few lines: (§1)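 IC50 values were obtained from variable-slope sigmoidal dose-response fitting of a FRET read-out of peptide phosphorylation. The buffer, described for FGFR3, was 50 mM HEPES pH 7.5 with MgCl2, EGTA, Tween-20 and DTT.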
Chain of FGFR1 (P11362 22-822): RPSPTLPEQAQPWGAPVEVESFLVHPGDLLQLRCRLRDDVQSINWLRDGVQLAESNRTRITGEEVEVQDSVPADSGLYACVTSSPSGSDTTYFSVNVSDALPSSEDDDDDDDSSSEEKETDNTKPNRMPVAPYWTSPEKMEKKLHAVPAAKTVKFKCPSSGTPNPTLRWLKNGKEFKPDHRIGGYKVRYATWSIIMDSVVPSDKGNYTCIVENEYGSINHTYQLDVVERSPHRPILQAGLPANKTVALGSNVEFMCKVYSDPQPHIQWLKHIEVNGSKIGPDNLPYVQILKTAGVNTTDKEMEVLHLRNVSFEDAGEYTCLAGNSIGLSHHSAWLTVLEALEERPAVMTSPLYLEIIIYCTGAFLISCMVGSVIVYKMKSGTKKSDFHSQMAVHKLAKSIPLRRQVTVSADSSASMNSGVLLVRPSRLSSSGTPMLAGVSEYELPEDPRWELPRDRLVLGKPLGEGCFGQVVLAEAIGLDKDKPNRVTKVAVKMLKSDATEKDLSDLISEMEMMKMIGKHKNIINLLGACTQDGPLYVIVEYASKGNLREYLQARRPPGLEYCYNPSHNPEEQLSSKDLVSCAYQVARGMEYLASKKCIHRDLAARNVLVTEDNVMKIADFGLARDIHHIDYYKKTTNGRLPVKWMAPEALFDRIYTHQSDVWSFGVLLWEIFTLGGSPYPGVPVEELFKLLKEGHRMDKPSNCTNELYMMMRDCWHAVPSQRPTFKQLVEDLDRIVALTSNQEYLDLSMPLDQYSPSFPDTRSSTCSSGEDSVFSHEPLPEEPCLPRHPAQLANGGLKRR

A further assay concerns the target FGFR2 (Homo sapiens (Human), UniProt P21802). Nature of the assay: FGFR enzymatic assay (FRET peptide phosphorylation), FGFR2. Particulars: FGFR2 enzyme 0.01 nM, ATP 100 μM. In a few lines: as §1
In another assay the target is FGFR3 (Homo sapiens (Human), UniProt P22607). The assay is described as follows: FGFR enzymatic assay (FRET peptide phosphorylation), FGFR3. Particulars: FGFR3 enzyme (Millipore), ATP 140 μM. In a few lines: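 After 5-10 min pre-incubation of FGFR3 with serially diluted compound in pH 7.5 HEPES/MgCl2/EGTA/DTT buffer, the reaction proceeded 1 hr at 25° C. Phosphorylated peptide was detected by FRET, and IC50 was fitted with a variable-slope sigmoid.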
Chain of FGFR3 (P22607 23-806): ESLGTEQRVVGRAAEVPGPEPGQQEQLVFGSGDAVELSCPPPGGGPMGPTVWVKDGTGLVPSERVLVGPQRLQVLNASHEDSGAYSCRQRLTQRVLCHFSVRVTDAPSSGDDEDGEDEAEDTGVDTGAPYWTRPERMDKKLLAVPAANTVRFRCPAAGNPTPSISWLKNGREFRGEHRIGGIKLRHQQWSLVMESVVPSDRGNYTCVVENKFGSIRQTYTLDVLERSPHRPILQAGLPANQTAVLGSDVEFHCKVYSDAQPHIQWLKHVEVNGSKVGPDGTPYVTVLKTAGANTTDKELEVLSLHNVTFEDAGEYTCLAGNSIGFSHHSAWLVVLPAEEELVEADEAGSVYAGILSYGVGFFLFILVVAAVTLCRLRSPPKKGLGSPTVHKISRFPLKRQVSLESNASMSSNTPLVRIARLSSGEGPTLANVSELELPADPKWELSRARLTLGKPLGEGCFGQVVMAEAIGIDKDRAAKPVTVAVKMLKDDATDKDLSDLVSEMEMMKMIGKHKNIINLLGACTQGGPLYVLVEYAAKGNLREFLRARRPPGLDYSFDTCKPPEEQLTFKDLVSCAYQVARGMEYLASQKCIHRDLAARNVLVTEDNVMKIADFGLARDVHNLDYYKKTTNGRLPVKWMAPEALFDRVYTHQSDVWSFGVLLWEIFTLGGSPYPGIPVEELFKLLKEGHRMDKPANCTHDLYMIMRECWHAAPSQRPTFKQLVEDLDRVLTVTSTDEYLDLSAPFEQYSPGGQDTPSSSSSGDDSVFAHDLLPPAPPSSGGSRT

Broadly, the IC50 is the concentration needed to halve the response being measured. Low readings indicate inhibition by little substance, high ones a need for much substance.

Structures are written as SMILES.

Chain of FGFR2 (P21802 22-821): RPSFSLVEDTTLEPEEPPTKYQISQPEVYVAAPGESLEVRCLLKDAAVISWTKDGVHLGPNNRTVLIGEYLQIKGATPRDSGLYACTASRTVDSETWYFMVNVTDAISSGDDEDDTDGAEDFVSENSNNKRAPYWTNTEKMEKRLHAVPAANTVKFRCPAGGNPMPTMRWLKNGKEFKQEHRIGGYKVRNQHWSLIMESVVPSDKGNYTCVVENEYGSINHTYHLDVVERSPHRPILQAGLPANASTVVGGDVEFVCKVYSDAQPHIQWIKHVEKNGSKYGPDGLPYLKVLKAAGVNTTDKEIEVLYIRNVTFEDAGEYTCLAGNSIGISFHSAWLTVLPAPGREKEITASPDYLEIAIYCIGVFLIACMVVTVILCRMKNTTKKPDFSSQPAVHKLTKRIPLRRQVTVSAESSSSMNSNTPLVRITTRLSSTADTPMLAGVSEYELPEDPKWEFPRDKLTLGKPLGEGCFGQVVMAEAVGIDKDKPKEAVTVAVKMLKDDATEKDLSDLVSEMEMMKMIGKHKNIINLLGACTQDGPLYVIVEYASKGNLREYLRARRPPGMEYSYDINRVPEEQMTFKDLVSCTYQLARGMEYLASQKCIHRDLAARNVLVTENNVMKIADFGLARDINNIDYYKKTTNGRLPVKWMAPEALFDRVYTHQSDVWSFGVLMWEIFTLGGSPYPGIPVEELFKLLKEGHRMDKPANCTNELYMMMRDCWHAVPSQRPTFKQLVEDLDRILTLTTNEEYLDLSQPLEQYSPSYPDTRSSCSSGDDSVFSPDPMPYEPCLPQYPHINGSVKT

Take `CCN1C(=O)N(c2c(F)c(OC)cc(OC)c2F)Cc2cnc3[nH]ncc3c21` [Example 57, 3-(2,6-Difluoro-3,5-dimethoxyphenyl)-1-ethyl-1,3,4,7-tetrahydro-2H-pyrazolo[4′,3′:5,6]pyrido[4,3-d]pyrimidin-2-one]: the IC50 against FGFR1, against FGFR2 and against FGFR3 was less than 0.1 µM in each case.

On to `COc1cc(OC)c(F)c(N2Cc3cnc4[nH]ncc4c3N(CCO)C2=O)c1F` [Example 58, 3-(2,6-Difluoro-3,5-dimethoxyphenyl)-1-(2-hydroxyethyl)-1,3,4,7-tetrahydro-2H-pyrazolo[4′,3′:5,6]pyrido[4,3-d]pyrimidin-2-one], for which the half-inhibitory concentration (IC50) at FGFR1, on FGFR2 and at FGFR3 was less than 0.1 µM in each case.

Consider `COc1cc(OC)c(F)c(N2Cc3cnc4[nH]ccc4c3CC2=O)c1F` [Example 60, 7-(2,6-difluoro-3,5-dimethoxyphenyl)-3,6,7,9-tetrahydro-8H-pyrrolo[2,3-c]-2,7-naphthyridin-8-one], for which the IC50 at FGFR1, against FGFR2 and on FGFR3 was less than 0.1 µM in each case.

Turning to `COc1cc(OC)c(F)c(N2Cc3cnc4[nH]cnc4c3N(C)C2=O)c1F` [Example 61, 7-(2,6-difluoro-3,5-dimethoxyphenyl)-9-methyl-3,6,7,9-tetrahydro-8H-imidazo[4′,5′:5,6]pyrido[4,3-d]pyrimidin-8-one], the concentration for half-maximal inhibition (IC50) against FGFR1, on FGFR2 and against FGFR3 was less than 0.1 µM throughout.

With `COc1cc(OC)c(F)c(N2Cc3cnc4[nH]ncc4c3OC2=O)c1F` [Example 62, 3-(2,6-difluoro-3,5-dimethoxyphenyl)-4,7-dihydropyrazolo[4′,3′:5,6]pyrido[3,4-e][1,3]oxazin-2(3H)-one], the results for the IC50 on FGFR1, on FGFR2 and against FGFR3 were 0.1 to 0.5 µM, 0.1 to 0.5 µM and less than 0.1 µM, respectively.

Take `COc1cc(OC)c(F)c(N2Cc3cnc4c(c3N(C3CCC3)C2=O)CC(=O)N4)c1F` [Example 64, 1-cyclobutyl-3-(2,6-difluoro-3,5-dimethoxyphenyl)-3,4,7,9-tetrahydro-1H-pyrrolo[3′,2′:5,6]pyrido[4,3-d]pyrimidine-2,8-dione]: the IC50 against FGFR1, against FGFR2 and against FGFR3 was less than 0.1 µM in each case.

Take `COc1cc(OC)c(F)c(N2Cc3cnc4c(c3N(Cc3cccc(F)c3)C2=O)CC(=O)N4)c1F` [Example 65, 3-(2,6-difluoro-3,5-dimethoxyphenyl)-1-(3-fluorobenzyl)-3,4,7,9-tetrahydro-1H-pyrrolo[3′,2′:5,6]pyrido[4,3-d]pyrimidine-2,8-dione]: the 50% inhibitory concentration (IC50) against FGFR1, at FGFR2 and against FGFR3 was less than 0.1 µM in each case.

For the compound `COc1cc(OC)c(F)c(N2Cc3cnc4[nH]ccc4c3C3(CC3)C2=O)c1F` [Example 66, 7′-(2,6-difluoro-3,5-dimethoxyphenyl)-6′,7′-dihydrospiro[cyclopropane-1,9′-pyrrolo[2,3-c][2,7]naphthyridin]-8′(3′H)-one], the 50% inhibitory concentration (IC50) against FGFR1, against FGFR2 and on FGFR3 was less than 0.1 µM in each case.

Turning to `COc1cc(OC)c(F)c(N2Cc3cnc4[nH]ccc4c3C(C)(C)C2=O)c1F` [Example 67, 7-(2,6-difluoro-3,5-dimethoxyphenyl)-9,9-dimethyl-3,6,7,9-tetrahydro-8H-pyrrolo[2,3-c]-2,7-naphthyridin-8-one], the IC50 against FGFR1, on FGFR2 and at FGFR3 was less than 0.1 µM each time.

Turning to `COc1cc(OC)c(F)c(N2Cc3cnc4c(c3N(c3ccc(Cl)cc3F)C2=O)CC(=O)N4)c1F` [Example 68, 1-(4-chloro-2-fluorophenyl)-3-(2,6-difluoro-3,5-dimethoxyphenyl)-3,4,7,9-tetrahydro-1H-pyrrolo[3′,2′:5,6]pyrido[4,3-d]pyrimidine-2,8-dione], the IC50 at FGFR1, against FGFR2 and against FGFR3 was less than 0.1 µM each time.

`CCN1CCN(c2ccc(-c3n[nH]c4ncc5c(c34)N(C)C(=O)N(c3c(F)c(OC)cc(OC)c3F)C5)cc2)CC1` [Example 69, 3-(2,6-difluoro-3,5-dimethoxyphenyl)-9-[4-(4-ethylpiperazin-1-yl)phenyl]-1-methyl-1,3,4,7-tetrahydro-2H-pyrazolo[4′,3′:5,6]pyrido[4,3-d]pyrimidin-2-one]: the concentration for half-maximal inhibition (IC50) against FGFR1, against FGFR2 and on FGFR3 was less than 0.1 µM in each case.

In the case of `CCN1CCN(Cc2cc3c4c(cnc3[nH]2)CN(c2c(F)c(OC)cc(OC)c2F)C(=O)N4C)CC1` [Example 70, 3-(2,6-difluoro-3,5-dimethoxyphenyl)-8-[(4-ethylpiperazin-1-yl)methyl]-1-methyl-1,3,4,7-tetrahydro-2H-pyrrolo[3′,2′:5,6]pyrido[4,3-d]pyrimidin-2-one], the IC50 against FGFR1, against FGFR2 and on FGFR3 was less than 0.1 µM in each case.

With `CCN1CCN(CCc2cc3c4c(cnc3[nH]2)CN(c2c(F)c(OC)cc(OC)c2F)C(=O)N4C)CC1` [Example 71, 3-(2,6-difluoro-3,5-dimethoxyphenyl)-8-[2-(4-ethylpiperazin-1-yl)ethyl]-1-methyl-1,3,4,7-tetrahydro-2H-pyrrolo[3′,2′:5,6]pyrido[4,3-d]pyrimidin-2-one], the half-inhibitory concentration (IC50) at FGFR1, against FGFR2 and at FGFR3 was less than 0.1 µM in each case.

Regarding `CCN1CCN(CCCc2cc3c4c(cnc3[nH]2)CN(c2c(F)c(OC)cc(OC)c2F)C(=O)N4C)CC1` [Example 72, 3-(2,6-difluoro-3,5-dimethoxyphenyl)-8-[3-(4-ethylpiperazin-1-yl)propyl]-1-methyl-1,3,4,7-tetrahydro-2H-pyrrolo[3′,2′:5,6]pyrido[4,3-d]pyrimidin-2-one], the half-maximal inhibitory concentration (IC50) at FGFR1, at FGFR2 and on FGFR3 was less than 0.1 µM throughout.

As to `CCN1CCC(Cc2cc3c4c(cnc3[nH]2)CN(c2c(F)c(OC)cc(OC)c2F)C(=O)N4C)CC1` [Example 73, 3-(2,6-difluoro-3,5-dimethoxyphenyl)-8-[(1-ethylpiperidin-4-yl)methyl]-1-methyl-1,3,4,7-tetrahydro-2H-pyrrolo[3′,2′:5,6]pyrido[4,3-d]pyrimidin-2-one], the IC50 against FGFR1, against FGFR2 and on FGFR3 was less than 0.1 µM each time.

As to `COc1cc(OC)c(F)c(N2Cc3cnc4[nH]ccc4c3N([C@@H]3CCC[C@H]3O)C2=O)c1F` [Example 74, 3-(2,6-difluoro-3,5-dimethoxyphenyl)-1-[(1R,2R)-2-hydroxycyclopentyl]-1,3,4,7-tetrahydro-2H-pyrrolo[3′,2′:5,6]pyrido[4,3-d]pyrimidin-2-one], the IC50 against FGFR1, against FGFR2 and on FGFR3 was less than 0.1 µM in each case.

For `COc1cc(OC)c(F)c(N2Cc3cnc4c(c3N([C@@H]3CCC[C@H]3O)C2=O)CC(=O)N4)c1F` [Example 75, 3-(2,6-difluoro-3,5-dimethoxyphenyl)-1-[(1R,2R)-2-hydroxycyclopentyl]-3,4,7,9-tetrahydro-1H-pyrrolo[3′,2′:5,6]pyrido[4,3-d]pyrimidine-2,8-dione], the IC50 on FGFR1, against FGFR2 and at FGFR3 was less than 0.1 µM throughout.

`COc1cc(OC)c(F)c(N2Cc3cnc4[nH]ccc4c3N(c3cccc(F)c3F)C2=O)c1F` [Example 76, 3-(2,6-difluoro-3,5-dimethoxyphenyl)-1-(2,3-difluorophenyl)-1,3,4,7-tetrahydro-2H-pyrrolo[3′,2′:5,6]pyrido[4,3-d]pyrimidin-2-one]: the half-maximal inhibitory concentration (IC50) at FGFR1, at FGFR2 and against FGFR3 was less than 0.1 µM each time.

With `COc1cc(OC)c(F)c(N2Cc3cnc4[nH]ccc4c3N(Cc3ccccn3)C2=O)c1F` [Example 78, 3-(2,6-difluoro-3,5-dimethoxyphenyl)-1-(pyridin-2-ylmethyl)-1,3,4,7-tetrahydro-2H-pyrrolo[3′,2′:5,6]pyrido[4,3-d]pyrimidin-2-one], the IC50 against FGFR1, at FGFR2 and against FGFR3 was less than 0.1 µM in each case.

As for `COc1cc(OC)c(F)c(N2Cc3cnc4c(c3N(Cc3ccccn3)C2=O)CC(=O)N4)c1F` [Example 79, 3-(2,6-difluoro-3,5-dimethoxyphenyl)-1-(pyridin-2-ylmethyl)-3,4,7,9-tetrahydro-1H-pyrrolo[3′,2′:5,6]pyrido[4,3-d]pyrimidine-2,8-dione], the 50% inhibitory concentration (IC50) on FGFR1, against FGFR2 and at FGFR3 was less than 0.1 µM each time.

On to `COc1cc(OC)c(F)c(N2Cc3cnc4c(c3N(c3ccc(Cl)cc3)C2=O)CC(=O)N4)c1F` [Example 80, 1-(4-chlorophenyl)-3-(2,6-difluoro-3,5-dimethoxyphenyl)-3,4,7,9-tetrahydro-1H-pyrrolo[3′,2′:5,6]pyrido[4,3-d]pyrimidine-2,8-dione], for which the IC50 at FGFR1, on FGFR2 and against FGFR3 was less than 0.1 µM in each case.

Take `COc1cc(OC)c(F)c(N2Cc3cnc4c(c3N(c3ccc(Cl)cn3)C2=O)CC(=O)N4)c1F` [Example 81, 1-(5-chloropyridin-2-yl)-3-(2,6-difluoro-3,5-dimethoxyphenyl)-3,4,7,9-tetrahydro-1H-pyrrolo[3′,2′:5,6]pyrido[4,3-d]pyrimidine-2,8-dione]: the half-maximal inhibitory concentration (IC50) against FGFR1, at FGFR2 and against FGFR3 was less than 0.1 µM each time.

Regarding `COc1cc(OC)c(F)c(N2Cc3cnc4[nH]ccc4c3N(c3cccc(C#N)c3)C2=O)c1F` [Example 82, 3-[3-(2,6-difluoro-3,5-dimethoxyphenyl)-2-oxo-2,3,4,7-tetrahydro-1H-pyrrolo[3′,2′:5,6]pyrido[4,3-d]pyrimidin-1-yl]benzonitrile], the half-inhibitory concentration (IC50) against FGFR1, at FGFR2 and on FGFR3 was less than 0.1 µM throughout.
